Results reported in US7166635B2, “3-imino-2-indolones for the treatment of depression and/or anxiety” (H. Lundbeck A/S, priority 2002, dated 2007).
pKi: −log10 of the molar value.

Molecular target: T1, human GalR3 receptor (Homo sapiens, UniProt O60755)
T1 construct: expressed in transfected cells; membranes
T1 sequence (O60755 1-368): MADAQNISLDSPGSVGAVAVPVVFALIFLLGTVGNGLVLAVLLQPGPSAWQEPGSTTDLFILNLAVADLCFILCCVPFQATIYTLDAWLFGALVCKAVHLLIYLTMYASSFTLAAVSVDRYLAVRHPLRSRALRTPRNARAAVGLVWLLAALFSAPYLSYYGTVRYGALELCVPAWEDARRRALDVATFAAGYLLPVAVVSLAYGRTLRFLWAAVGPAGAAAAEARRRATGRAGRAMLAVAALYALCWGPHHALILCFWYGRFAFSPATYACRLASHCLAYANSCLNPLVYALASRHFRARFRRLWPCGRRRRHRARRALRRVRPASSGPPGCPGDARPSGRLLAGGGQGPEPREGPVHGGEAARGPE
Test: Radioligand binding at cloned human GalR3 receptor
Conditions: Binding Data; membranes of LM(tk-) cells stably transfected with human GalR3
Protocol: The present invention provides for a method of determining the binding affinity of a GalR3 antagonist, wherein the GalR3 antagonist is dissolved in a “suitable solvent”. A “suitable solvent” means one which permits the measurement of binding affinity of the GalR3 antagonist to the human GalR3 receptor at concentrations less than 1 μM, preferably less than 100 nM. Examples of solvents include, but are not limited to, DMSO, ethanol, N,N-dimethylacetamide, or water. For indolones, the preferred solvent is 3% DMSO (final concentration in the assay). For any other type of compounds, the preferred solvent is the solvent which permits the measurement of binding affinity of a GalR3 antagonist at the lowest concentration.
COS-7 cells were grown on 150 mm plates in D-MEM with supplements (Dulbecco's Modified Eagle Medium with 10% bovine calf serum, 4 mM glutamine, 100 units/ml penicillin, 100 μg/ml streptomycin) at 37° C. with 5% CO2. Stock plates of COS-7 cells were trypsinized and split 1:6 every 3–4 days. Human embryonic kidney 293 cells were grown on 150 mm plates in D-MEM with supplements (minimal essential medium) with Hanks' salts and supplements (Dulbecco's Modified Eagle Medium with 10% bovine calf serum, 4 mM glutamine, 100 units/ml penicillin, 100 μg/ml streptomycin) at 37° C. with 5% CO2. Stock plates of 293 cells were trypsinized and split 1:6 every 3–4 days. Mouse fibroblast LM(tk-) cells were grown on 150 mm plates in D-MEM with supplements (Dulbecco's Modified Eagle Medium with 10% bovine calf serum, 4 mM glutamine, 100 units/mL penicillin, 100 μg/mL streptomycin) at 37° C. with 5% CO2. Stock plates of LM(tk-) cells were trypsinized and split 1:10 every 3–4 days. Chinese Hamster Ovary (CHO) cells were grown on 150 mm plates in HAM's F12 medium with (HAM's F-12 with 10% bovine calf serum, 4 mM glutamine, 100 units/mL penicillin, 100 μg/mL streptomycin) at 37° C. with 5% CO2. Stock plates of CHO cells were trypsinized and split 1:8 every 3–4 days. LM(tk-) cells were stably transfected with the human GalR3 receptor.
cDNAs for the human and rat GalR3 receptors were transfected with a G-418 resistant gene into the mouse fibroblast LM(tk-) cell line by a calcium phosphate transfection method (Cullen, 1987).
Membranes were harvested from stably transfected LM(tk-) cells. Adherent cells were washed twice in ice-cold phosphate buffered saline (138 mM NaCl, 8.1 mM Na2HPO4, 2.5 mM KCl, 1.2 mM KH2PO4, 0.9 mM CaCl2, 0.5 mM MgCl2, pH 7.4) and lysed by sonication in ice-cold sonication buffer (20 mM Tris-HCl, 5 mM EDTA, pH 7.7). Large particles and debris were cleared by low speed centrifugation (200×g, 5 min, 4° C.). Membranes were collected from the supernatant fraction by centrifugation (32,000×g, 18 min, 4° C.), washed with ice-cold hypotonic buffer, and collected again by centrifugation (32,000×g, 18 min, 4° C.). The final membrane pellet was resuspended by sonication into a small volume of ice-cold binding buffer (˜1 ml for every 5 plates: 10 mM NaCl, 20 mM HEPES, 0.22 mM KH2PO4, 1.26 mM CaCl2, 0.81 mM MgSO4, pH 7.4). Protein concentration was measured by the Bradford method (Bradford, 1976) using Bio-Rad Reagent, with bovine serum albumin as a standard. Membranes were held on ice for up to one hour and used fresh, or flash frozen and stored in liquid nitrogen. Membranes were prepared similarly from CHO cells.
The methods to obtain the cDNA of the receptors, express said receptors in heterologous systems, and carry out assays to determine binding affinity are described as follows.
Binding assays were performed according to the following published method: human GALR3 (PCT International Publication No. WO 98/15570).

| SMILES | pKi |
| --- | --- |
| O=C1/C(=N\c2cccc(C(F)(F)F)c2)c2cc(O)ccc2N1c1ccccc1 [Example 9, 5-HYDROXY-1-PHENYL-3-{[3-(TRIFLUOROMETHYL)PHENYL]IMINO}-1,3-DIHYDRO-2H-INDOL-2-ONE] | 7.24 |
| O=C1/C(=N\c2cc(F)cc(F)c2)c2ccccc2N1c1ccc(O)cc1 [Example 6, 3-[(3,5-DIFLUOROPHENYL)IMINO]-1-(4-HYDROXYPHENYL)-1,3-DIHYDRO-2H-INDOL-2-ONE] | 7.39 |
| O=C1/C(=N\c2cccc(C(F)(F)F)c2)c2ccc(O)cc2N1c1ccccc1 [Example 4, 6-HYDROXY-1-PHENYL-3-{[3-(TRIFLUOROMETHYL)PHENYL]IMINO}-1,3-DIHYDRO-2H-INDOL-2-ONE] | 7.26 |
| O=C1/C(=N\c2cccc(C(F)(F)F)c2)c2ccccc2N1c1ccccc1O [Example 8, 1-(2-HYDROXYPHENYL)-3-{[3-(TRIFLUOROMETHYL)PHENYL]IMINO}-1,3-DIHYDRO-2H-INDOL-2-ONE] | 7.17 |
| O=C1/C(=N\c2ccc3c(c2)OC(F)(F)O3)c2ccccc2N1c1ccc(O)cc1 [Example 1, 3-[(2,2-DIFLUORO-1,3-BENZODIOXOL-5-YL)IMINO]-1-(4-HYDROXYPHENYL)-1,3-DIHYDRO-2H-INDOL-2-ONE] | 7.14 |

Now those with a higher pKi, led by results:

| pKi | SMILES |
| --- | --- |
| 7.51 | COc1ccc(N2C(=O)/C(=N\c3cccc(C(F)(F)F)c3)c3ccccc32)cn1 [Example 10, 3-[(3-TRIFLUOROMETHYLPHENYL)IMINO]-1-(6-METHOXY-3-PYRIDINYL)-1,3-DIHYDRO-2H-INDOL-2-ONE] |
| 7.55 | O=C1/C(=N\c2cccc(C(F)(F)F)c2)c2ccccc2N1c1cccc(O)c1 [Example 7, 1-(3-HYDROXYPHENYL)-3-{[3-(TRIFLUOROMETHYL)PHENYL]IMINO}-1,3-DIHYDRO-2H-INDOL-2-ONE] |
| 7.57 | O=C1/C(=N\c2ccc(Cl)c(Cl)c2)c2ccccc2N1c1ccc(O)cc1 [Example 5, 3-[(3,4-DICHLOROPHENYL)IMINO]-1-(4-HYDROXYPHENYL)-1,3-DIHYDRO-2H-INDOL-2-ONE] |
| 7.70 | COc1ccc(N2C(=O)C(=Nc3ccc(Cl)c(Cl)c3)c3cc(Cl)ccc32)cn1 (racemic) [Example 3, 5-CHLORO-3-[(3,4-DICHLOROPHENYL)IMINO]-1-(6-METHOXY-3-PYRIDINYL)-1,3-DIHYDRO-2H-INDOL-2-ONE] |
| 7.82 | COc1ccc(N2C(=O)/C(=N\c3ccc(Cl)c(Cl)c3)c3ccccc32)cn1 [Example 2, 3-[(3,4-DICHLOROPHENYL)IMINO]-1-(6-METHOXY-3-PYRIDINYL)-1,3-DIHYDRO-2H-INDOL-2-ONE] |
